The results in this text go back to patent publication US20240252677A1, “ONE-COMPONENT DELIVERY SYSTEM FOR NUCLEIC ACIDS” (The Trustees of the University of Pennsylvania, priority 2021, published 2024).

In general, pKa refers to the pH at which an ionisable group is half protonated.

In one series the test system is liver. In words: In vivo mRNA delivery, IVIS imaging of organs: liver. Set-up: species or system mice. To be noted: Table 14. On the procedure: (§1) The exposure time was 1 min.
(§2) Tissue luminescence signal was measured on the IVIS imaging system using an exposure time of 60 seconds using medium binning (binning=8) to ensure that the signal obtained was within operative detection range. […] Bioluminescence imaging was performed as described above.
(§3) Tissue luminescence signal was measured on the IVIS imaging system using a certain exposure time (60, 30 or 15 seconds) and medium binning (binning=8) to ensure that the signal obtained was within operative detection range.

Another series has as its system spleen. In words: In vivo mRNA delivery, IVIS imaging of organs: spleen. Set-up: species or system mice; key to Organs with luminescence: spleen: strong: Strong meant the luminescence intensity in that organ was relatively high, compared to other organs; weak: Weak meant the luminescence intensity in that organ was relatively low, compared to other organs. To be noted: for Organs with luminescence: spleen (weak/strong): Table 14; for Organs with luminescence: spleen: Table 17, mice, IVIS, 4-6 h after injection, intensity relative to other organs. On the procedure: as §1, §2, §3

Series [1] is described as follows: Dimensions (size, PDI) of DNPs co-assembled from IAJDs and Luc-mRNA by DLS. In kind it is physicochemical. In short, it runs like this: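 IAJDs (80 mg/mL ethanol stock) rapidly injected into Luc-mRNA (4.0 mg/mL stock) diluted in 10 mM acetate buffer pH 4.0, then vortexed 5 s. Size and polydispersity of resulting DNPs measured by DLS (633 nm laser, 175° detection) at 23 °C.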

Series [2] in a line: pKa measurements of individual IAJD molecules by titration. In kind it is physicochemical. To be noted: ethanol saturated with NaCl, titrated with 0.1 M aqueous HCl, titration. In short, it runs like this: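 Compound dissolved at 1.5 mg/mL in NaCl-saturated ethanol and titrated with 0.1 M HCl in 7.5 μL steps, pH read by electrode after each addition. pKa taken from the half-equivalence point.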

A short description of series [3]: Stability of DNPs by DLS after storage at 5° C. It counts as physicochemical. Further details: key to Original size distribution type (DLS curve) / Size distribution type (DLS curve): U: DLS curve showed unimodal size distribution; B: DLS curve showed bimodal size distribution; M: DLS curve showed multimodal size distribution. To be noted: for pH Sample: DNPs: IAJD 4.0 mg/mL + Luc-mRNA 0.1 mg/mL, injection in acetate buffer pH 4.00; for PDI / Size (d, nm) / Original size distribution type (DLS curve): IAJD 4.0 mg/mL + Luc-mRNA 0.1 mg/mL; for PDI / Size (d, nm): acetate buffer; for Original size distribution type (DLS curve): before storage, acetate buffer pH 4.00. On the procedure: The stability of the DNPs as assayed by DLS. All the samples are prepared in acetate buffer. The stabilities of the constructs were ranked: Excellent (in bold)—the original sizes and distribution remains almost the same after storage; Good—the original relatively big sizes became smaller or broad size distribution became narrower; Not stable—the original relatively big sizes or broad size distribution remained almost the similar level, or the original relatively small sizes became bigger or narrow size distribution became broader.

[4] abbreviates: Table 12, DNPs, IAJD 4 mg/mL + Luc-mRNA 0.10 mg/mL, acetate buffer 10 mM pH 4.0.
Setting [5] is: Table 13, DNPs, IAJD 4 mg/mL + Luc-mRNA 0.10 mg/mL, acetate buffer pH 4.0.
Setting [6] is: Table 14, DNPs, IAJD 4 mg/mL + Luc-mRNA 0.10 mg/mL, acetate buffer pH 4.0.
Setting [7] is: Table 15, individual IAJD molecule.
The mark [8] stands for this setting: Table 16, DNPs from IAJD 4 mg/mL and Luc-mRNA 0.10 mg/mL by injection in acetate buffer (10 mM, pH 4.0).
The mark [9] stands for this setting: Table 17, DNPs used in vivo, IAJD 4 mg/mL, Luc-mRNA 0.10 mg/mL, acetate pH 4.0.

Structures are written as SMILES.

Take `CCCCCCCCCCCCOc1cc(COC(=O)CCCN2CCN(C)CC2)cc(OCCCCCCCCCCCC)c1OCCCCCCCCCCCC` [IAJD 79, 3,4,5-Tris(dodecyloxy)benzyl 4-(4-methylpiperazin-1-yl)butanoate]: in the series on liver (imaging 6 h after injection), the “Organs with luminescence: liver (weak/strong)” value (“Organs … liver (weak/strong)” for short) is reported as “liver (weak),”. Besides, the “Organs with luminescence: spleen (weak/strong)” value (shortened to “Organs … spleen (weak/strong)”) in the series with spleen (imaging 6 h after injection) was “spleen (strong)”. In addition, the PDI in series [1] (setting [4]), in series [1] (setting [5]) and in series [1] (setting [6]) was 0.763 each time. In addition, the “Size (d, nm)” value in series [1] (setting [4]), in series [1] (setting [5]) and in series [1] (setting [6]) was 352 nm each time. Moreover, the pKa in series [2] (setting [7]) came out at 6.25.
In the case of `CCCCCCCCCCCCOCC(COCCCCCCCCCCCC)(COCCCCCCCCCCCC)COC(=O)CCCN1CCN(CCO)CC1` [IAJD 83, 3-(Dodecyloxy)-2,2-bis((dodecyloxy)methyl)propyl 4-(4-(2-hydroxyethyl)piperazin-1-yl)butanoate], in the series on liver (imaging 5 h after injection), the “Organs … liver (weak/strong)” value is recorded as “liver (weak),”. In the series with spleen (imaging 5 h after injection), the “Organs … spleen (weak/strong)” value is “spleen (strong)”. Besides, the PDI in series [1] (setting [4]), in series [1] (setting [5]) and in series [1] (setting [6]) was 0.430 each time. Also, the “Size (d, nm)” value in series [1] (setting [4]), in series [1] (setting [5]) and in series [1] (setting [6]) was 143 nm in each case. In series [2] (setting [7]), the pKa stood at 6.3.
As for `CCCCCCCCCCCCOc1cc(COC(=O)CCN2CCN(C)CC2)cc(OCCCCCCCCCCCC)c1` [IAJD 84, 3,5-Bis(dodecyloxy)benzyl 3-(4-methylpiperazin-1-yl)propanoate], the “Organs … liver (weak/strong)” value with liver (imaging 5 h after injection) was “liver (weak),”. Also, the “Organs … spleen (weak/strong)” value with spleen (imaging 5 h after injection) is recorded as “spleen (strong)”. For the same compound, the PDI in series [1] (setting [4]), in series [1] (setting [5]) and in series [1] (setting [6]) was 0.303 in each case. Also, the “Size (d, nm)” value in series [1] (setting [4]), in series [1] (setting [5]) and in series [1] (setting [6]) was 171 nm throughout. For the same compound, in series [2] (setting [7]), the pKa was 6.19.
With `CCCCCCCOC(=O)CCCCOc1cc(COC(=O)CCCN2CCN(C)CC2)cc(OCCCCC(=O)OCCCCCCC)c1` [IAJD 85, Diheptyl 5,5′-((5-(((4-(4-methylpiperazin-1-yl)butanoyl)oxy)methyl)-1,3-phenylene)bis(oxy)) dipentanoate], the “Organs … liver (weak/strong)” value in the series with liver (imaging 5 h after injection) is listed as “liver (weak),”. In the series on spleen (imaging 5 h after injection), the “Organs … spleen (weak/strong)” value was “spleen (strong)”. Further, the PDI in series [1] (setting [4]), in series [1] (setting [5]) and in series [1] (setting [6]) was 0.250 in each case. The “Size (d, nm)” value in series [1] (setting [4]), in series [1] (setting [5]) and in series [1] (setting [6]) was 102 nm each time. The same compound registered a pKa in series [2] (setting [7]) of 6.21.
Turning to `CCCCC(CC)COC(=O)CCCCOc1cc(COC(=O)CCCN2CCN(CCO)CC2)cc(OCCCCC(=O)OCC(CC)CCCC)c1` (stereo not shown) [IAJD 95], the “Organs … liver (weak/strong)” value in the series on liver (imaging 6 h after injection) was “liver (weak),”. The “Organs … spleen (weak/strong)” value with spleen (imaging 6 h after injection) is on record as “spleen (strong)”. Moreover, the PDI in series [1] (setting [4]), in series [1] (setting [5]) and in series [1] (setting [6]) was 0.352 each time. Besides, the “Size (d, nm)” value in series [1] (setting [4]), in series [1] (setting [5]) and in series [1] (setting [6]) was 105 nm each time. The pKa in series [2] (setting [7]) stood at 6.33.
With `CCCCCCCCCCCOc1cc(COC(=O)CCCN2CCN(CCO)CC2)cc(OCCCCCCCCC)c1` [IAJD 122, 3-(Nonyloxy)-5-(undecyloxy)benzyl 4-(4-(2-hydroxyethyl)piperazin-1-yl)butanoate], the “Organs with luminescence: spleen” value with spleen was “spleen (strong)”. For the same compound, in series [1] (setting [8]), the PDI amounted to 0.337 and the “Size (d, nm)” value amounted to 215 nm. In series [1] (setting [9]), the PDI came out at 0.337 and the “Size (d, nm)” value is on record as 215 nm. The pKa in series [2] (individual IAJD molecules) came to 6.66. Moreover, in series [3], the “pH Sample” value stood at 4.49 and the “Original size distribution type (DLS curve)” value is recorded as “(B)”. In series [3] (after 62 days at 5° C.), the “Size distribution type (DLS curve)” value is listed as “(B)”; the PDI worked out at 0.346; the “Size (d, nm)” value is 192 nm.
As for `CCCCCCCCCCCCOc1cc(COC(=O)CCCN2CCN(CCO)CC2)cc(OCCCCCCCCCCC)c1` [IAJD 124, 3-(Dodecyloxy)-5-(undecyloxy)benzyl 4-(4-(2-hydroxyethyl)piperazin-1-yl)butanoate], the “Organs with luminescence: spleen” value with spleen is on record as “spleen (strong)”. Moreover, in series [1] (setting [8]), the PDI worked out at 0.280 and the “Size (d, nm)” value was 276 nm. For the same compound, in series [1] (setting [9]), the PDI is on record as 0.280 and the “Size (d, nm)” value amounted to 276 nm. The pKa in series [2] (individual IAJD molecules) turned out to be 6.65. Besides, in series [3], the “pH Sample” value turned out to be 4.51 and the “Original size distribution type (DLS curve)” value is given as “(U)”. In series [3] (after 62 days at 5° C.), the “Size distribution type (DLS curve)” value is recorded as “(B)”; the PDI was determined as 0.240; the “Size (d, nm)” value was 284 nm.
As for `CCCCCCCCCCCCCCOc1cc(CNC(=O)CCCN2CCN(C)CC2)cc(OCCCCCCCCCCC)c1` [IAJD 133, 4-(4-Methylpiperazin-1-yl)-N-(3-(tetradecyloxy)-5-(undecyloxy)benzyl)butanamide], the “Organs with luminescence: spleen” value in the series on spleen is listed as “spleen (weak)”. Also, in series [1] (setting [8]), the PDI amounted to 0.414 and the “Size (d, nm)” value is 228 nm. Besides, in series [1] (setting [9]), the PDI is given as 0.414 and the “Size (d, nm)” value is reported as 228 nm. Moreover, the pKa in series [2] (individual IAJD molecules) stood at 6.57. Also, in series [3], the “pH Sample” value stood at 4.63 and the “Original size distribution type (DLS curve)” value is listed as “(B)”. Besides, in series [3] (after 42 days at 5° C.), the “Size distribution type (DLS curve)” value is “(B)”; the PDI was found to be 0.454; the “Size (d, nm)” value amounted to 216 nm.
Turning to `CCCCCCCCCCCCCCCOc1cc(COC(=O)CCCN2CCN(CCO)CC2)cc(OCCCCCCCC)c1` [IAJD 138, 3-(Octyloxy)-5-(pentadecyloxy)benzyl 4-(4-(2-hydroxyethyl)piperazin-1-yl)butanoate], the “Organs with luminescence: spleen” value with spleen was “spleen (strong)”. Further, in series [1] (setting [8]), the PDI was 0.305 and the “Size (d, nm)” value amounted to 99 nm. Further, in series [1] (setting [9]), the PDI worked out at 0.305 and the “Size (d, nm)” value was found to be 99 nm. The compound also returned a pKa in series [2] (individual IAJD molecules) of 6.62. Further, in series [3], the “pH Sample” value was 4.52 and the “Original size distribution type (DLS curve)” value is “(U)”. In series [3] (after 35 days at 5° C.), the “Size distribution type (DLS curve)” value is “(B)”; the PDI was 0.261; the “Size (d, nm)” value amounted to 112 nm.
In the case of `CCCCCCCCCCCOc1cc(COC(=O)c2cc(OCCOCCOCCCC(=O)CCCN3CCCCC3)c(OCCOCCOCCOCc3ccccc3)c(OCCOCCOCCOC(=O)CCCN3CCCCC3)c2)cc(OCC(CC)CCCC)c1` (stereo not shown) [IAJD 155], the “Organs with luminescence: spleen” value in the series with spleen is given as “spleen (weak)”. Further, in series [1] (setting [8]), the PDI worked out at 0.279 and the “Size (d, nm)” value came out at 83 nm. In series [1] (setting [9]), the PDI is on record as 0.279 and the “Size (d, nm)” value is reported as 83 nm. The compound further yielded a pKa in series [2] (individual IAJD molecules) of 7.4. Further, in series [3], the “pH Sample” value is reported as 4.93 and the “Original size distribution type (DLS curve)” value is “(U)”. Also, in series [3] (after 19 days at 5° C.), the “Size distribution type (DLS curve)” value is given as “(U)”; the PDI was found to be 0.259; the “Size (d, nm)” value is on record as 86 nm.
